Results as given in ChEMBL document CHEMBL4673222, “Discovery of a Bioactive Inhibitor with a New Scaffold for Cystathionine γ-Lyase” (J Med Chem, 2019).

Molecular target: Cystathionine gamma-lyase (Homo sapiens, UniProt P32929)
Experiment: Inhibition of human CSE using L-Cys as the substrate by tandem well based HTS assay

Chain of Cystathionine gamma-lyase (P32929 whole entry): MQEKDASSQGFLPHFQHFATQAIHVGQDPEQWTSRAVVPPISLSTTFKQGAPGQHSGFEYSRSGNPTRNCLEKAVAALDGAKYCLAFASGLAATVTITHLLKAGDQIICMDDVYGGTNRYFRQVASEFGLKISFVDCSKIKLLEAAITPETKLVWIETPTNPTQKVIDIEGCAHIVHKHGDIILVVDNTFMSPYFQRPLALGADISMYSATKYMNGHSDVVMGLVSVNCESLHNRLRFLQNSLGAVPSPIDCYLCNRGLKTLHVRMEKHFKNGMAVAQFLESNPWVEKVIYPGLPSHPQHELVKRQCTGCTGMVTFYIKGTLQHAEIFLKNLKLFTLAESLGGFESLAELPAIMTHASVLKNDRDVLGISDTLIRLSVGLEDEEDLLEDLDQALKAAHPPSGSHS

IC50 [µM] | SMILES
< 50 | NC1=C(Cl)C(=O)c2ncccc2C1=O
< 50 | CN1CCN(C2=C(Cl)C(=O)c3ccccc3C2=O)CC1
143 | CC1=C/C(=C(\c2cc(C)c(O)c(C(=O)O)c2)c2c(Cl)ccc(S(=O)(=O)O)c2Cl)C=C(C(=O)O)C1=O
< 50 | Cc1ccc([S+]([O-])c2ccc([N+](=O)[O-])c3nonc23)cc1 (centres undefined)
< 50 | NC1=C(Br)C(=O)c2ncccc2C1=O
< 50 | O=C1c2ccccc2C(=O)c2sc(Nc3ccc(Cl)cc3)nc21
< 50 | O=C1C(Cl)=C(N2CCN(C3=C(Cl)C(=O)c4ccccc4C3=O)CC2)C(=O)c2ccccc21
< 50 | CC1OC2CC(=O)OC2C2=C1C(=O)c1c(O)cccc1C2=O (centres undefined)
< 50 | O=CN/C=C\c1cc(O)ccc1O
< 50 | CCNC1=CC(=O)c2ncccc2C1=O
< 50 | O=C1C(Cl)=C(NCCCCCCNC2=C(Cl)C(=O)c3ccccc3C2=O)C(=O)c2ccccc21
> 200 | O=C(O)C1=C/C(=C(\c2ccccc2)c2cc(C(=O)O)c(O)c3ccccc23)c2ccccc2C1=O
> 200 | COC(=O)C1=CC(=C(c2ccc(O)c(C(=O)OC)c2)c2ccc(O)c(C(=O)OC)c2)C=CC1=O
< 50 | O=C1C(Cl)=C(NCCN2CCNCC2)C(=O)c2ccccc21
